Laboratory results: US5942521A, “Quinolinone derivative and anti-allergic agent with said quinolinone derivative as the active ingredient” (Dainippon Ink and Chemicals, Inc., priority 1996, dated 1999)

Key:
Assay type in all cases: in vivo
[1] = test system: contact dermatitis induced by picryl chloride; test: Effect on contact dermatitis induced by picryl chloride in mice; details: Mus musculus, po; test compounds, 20 mg/kg p.o. 12 hours after challenge; ear thickness at 24 hours; read-out: Inhibition (%) of increase of ear thickness
Experimental: Effect on contact dermatitis induced by picryl chloride in mice
The delayed type hypersensitization is inhibited by steroid, but can not be effected by known anti-allergic agents. In the following, the method of the pharmacological test will be explained.
Method: Mice, shaved their abdominal skin on previous day, were immunized by applying 0.1 ml of acetone containing 7 mg of picryl chloride to the skin of the abdomen. 7 days after immunization, the thickness of the ear was measured with a dial thickness gauge, then mice were challenged by painting […] of 1% picryl chloride olive oil solution to each side skin of left ear. 24 hours after challenge, the thickness of the left ear was measured again. The compounds of the present invention (test compounds) suspended in 0.5% MC were forcibly administered orally at a dose of 20 mg/kg 12 hours after challenge. As vehicle control group, only 0.5% MC solution was administered orally, and as positive control group, Prednisolone, steroid hormone, was administered orally at a dose of 10 mg/kg and as negative control group, Tranilast was administered orally at a dose of 200 mg/kg.
Increase (%)=(A-B)/B×100 (Equation 2)
A: thickness of the ear at 24 hours after challenge
B: thickness of the ear before challenge
Inhibition (%)=(C-D)/C×100 (Equation 3)
C: The increase (%) in vehicle control group
D: The increase (%) in test compounds group, positive control group

[2] = test system: delayed type asthmatic response; test: Effect on experimental delayed type asthma model in guinea pigs; details: AUC of airway resistance 4-8 hours after challenge
Excerpt: (§1) Effect on experimental immediate and delayed type asthma model in guinea pigs
(§2) The asthma is typical allergic disease and we carried out this pharmacological test by experimental asthmatic model in guinea pigs in order to confirm that the compounds of the present invention, compound 21, 41 and 46, suppress immediate and delayed type asthmatic response. In the following, the method of the pharmacological test will be explained.
(§3) Method: Male hartley guinea pigs were sensitized by exposured aerosolized ovalbumine (OVA) (1% in saline) for 10 minutes per a day at eight times. The aerosol was generated by an ultrasonic nebulizer (NE-U12, Omuron inc.). One week after final sensitization, the animals were challenged with inhalation of OVA (2% in saline) for 5 minutes. The animals were pretreated with metyrapone (10 mg/kg, i.v.) at 1 and 4 hours before the challenge, and pyrilamine (10 mg/kg, i.p.) at 30 minutes before the challenge. airway resistance in the conscious animals were measured for 1 minute with PULMOS-1(made in Medical Interface Project Station Inc.) at 1 minute, 2, 4, 5, 6, 7, 8 and 23 to 24 hours after the challenge. Compound 21, 41 and 46 (test compound) suspended in 0.5% methylcellulose (MC) solution were given orally at doses of 5, 10 and 20 mg/kg 1 hour before and 3 hours after the challenge. As a positive control group, Prednisolone was given orally at a dose of 10 mg/kg 2 hours and 16 hours before the challenge. As vehicle control group, only 0.5% MC solution was given orally.
(§4) The evaluation of the effect of the compounds on immediate and delayed type asthmatic response was undertaken with percentage of change in airway resistance 1 minute after the challenge and the area under the response curve for percentage of change in airway resistance between 4 and 8 hours after the challenge, respectively. The inhibition (%) of the compounds for immediate and delayed type asthmatic response was calculated according to equation 4 and the result was shown in table 3. Each experimental group consisted of 8 guinea pigs.
(§5) Inhibition (%)=(A-B)/A×100 (equation 4)
(§6) A: percentage of change in airway resistance in vehicle control group
(§7) B: percentage of change in airway resistance in test compound group or positive control group

[3] = test system: passive cutaneous anaphylaxis (PCA) reaction; test: Effect on homologous passive cutaneous anaphylaxis (PCA) reaction in rats; details: Rattus norvegicus, po, 0.5 h; test compounds, 100 mg/kg p.o., 1 hour before induction of anaphylaxis, male wistar rats
Experimental: Effect on homologous passive cutaneous anaphylaxis (PCA) reaction in rats
This experimental animal model is caused by immediate type allergic reaction, namely, antigen-antibody reaction. In the following, the method of this pharmacological test will be explained.
Method: Male wistar rats (9 weeks old) were intradermally administered 0.05 ml of anti-serum against dinitrophenylated ascaris (DNP-As) into two sites on the shaved dorsal skin. 48 hours later, aminoquinolinone derivatives (test compounds) suspended in 0.5% methylcellulose (MC) were given orally at a dose of 100 mg/kg to the animals. 1 hour after administration of Test compounds, the animals were induced anaphylaxis by injection of saline (1 ml) dissolving 1 mg of trinitrophenylated ascaris (TNP-As) and 5 mg of Evans Blue into the tail vein of the animals. 30 minutes after induction of anaphylaxis, animals were anesthetized by ether and killed by bleeding, and were flayed dorsal skin. The leakage of dye was assessed by measuring the diameter (mean of shortest and longest diameter) of the blue spot on the inside surface of dorsal skin. As vehicle control group, only 0.5% MC solution was administered orally, and as positive control group, Tranilast suspended in 0.5% MC were administered orally at a dose of 200 mg/kg to the animals with the same method as the test compounds groups, The inhibition (%) of PCA reaction was calculated according to equation 1 and the result was shown in Table 1. Each experimental group consisted of 5 rats.
In the conditions of this experiment, it was considered that the compound, which inhibited PCA reaction by over forty (40) percent against that in vehicle control group, was evidently effective for immediate type allergy.
Inhibition (%)=(A-B)/A×100 (Equation 1)
A: leakage of dye in vehicle control group
B: leakage of dye in test compound group or positive control group

[4] = test system: immediate type asthmatic response; test: Effect on experimental immediate type asthma model in guinea pigs; details: airway resistance 1 minute after challenge
Excerpt: as §1, §2, §3, §4, §5, §6, §7

[5] = 5 mg/kg p.o. 1 hour before and 3 hours after challenge
[6] = 10 mg/kg p.o. 1 hour before and 3 hours after challenge
[7] = 20 mg/kg p.o. 1 hour before and 3 hours after challenge

`C=CCNc1ccc2c(O)c(OCCCCCCCC)c(=O)n(C)c2c1` [compound 46, 7-(2-propenylamino)-3-octyloxy-4-hydroxy-1-methyl-2(1H)-quinolinone] was tested, and the inhibition in vivo at 20 mg/kg [1] was 55%, the “inhibition (%), delayed type asthma” value [2, 5] was 32% and the “inhibition (%), delayed type asthma” value [2, 6] was 44%. For the same molecule, the “inhibition (%), delayed type asthma” value [2, 7] was 53%, the inhibition in vivo at 100 mg/kg [3] was 46% and the “inhibition (%), immediate type asthma” value [4, 5] was 30%. For the same molecule, the “inhibition (%), immediate type asthma” value [4, 6] was 28% and the “inhibition (%), immediate type asthma” value [4, 7] was 33%.
